Experimental findings from PubChem BioAssay (NCI) are described below.

Assay in all cases: NCI anticancer screen, dose series, 48 h
Assay [1] relates to MDA-MB-435.
For assay [2], the system named is MDA-N.
Assay [3] concerns OVCAR-8 ovarian.
Assay [4] relates to SK-MEL-5 melanoma.
In assay [5] the test system is SN12C renal.
The subject of assay [6] is IGROV1 ovarian.
For assay [7], the system named is SNB-19 CNS.
The test system of assay [8] is SF-268 CNS.
The test system of assay [9] is HCT-15 colon.
Assay [10] has as its system RPMI-8226 leukemia.
Assay [11] has as its system SNB-75 CNS.
Assay [12] concerns NCI-H23 lung.
Assay [13] concerns ACHN renal.
In assay [14] the test system is COLO 205 colon.
Assay [15] relates to MDA-MB-231 breast.
In assay [16] the test system is SF-539 CNS.
Assay [17] has as its system UACC-62 melanoma.
Assay [18] has as its system U251 CNS.
Assay [19] relates to SK-OV-3 ovarian.

Structures are written as SMILES.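 Tested at 5 concentrations; 48 h exposure; 96-well plates; endpoints linearly interpolated, else capped at highest concentration. TGI is the concentration that stops growth completely.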

For `CC(=O)N1C(Nc2nccs2)CCN1c1ccccc1` (stereo unspecified), the TGI in assay [1], in assay [2], in assay [3], in assay [4], in assay [5] and in [6] was greater than 10 µM throughout. In addition, the TGI in [7], in assay [8], in [9], in [10], in [11] and in assay [12] was greater than 10 µM each time. Besides, the TGI in assay [13], in [14], in assay [15] and in assay [16] was greater than 10 µM throughout.

Turning to `Cc1ccc(S(=O)(=O)N2CCSCCSCCSCCN(S(=O)(=O)c3ccc(C)cc3)CC2)cc1`, the TGI in assay [1], in assay [17], in assay [18], in assay [2], in assay [3] and in assay [4] was greater than 100 µM each time. In addition, the TGI in assay [5], in [6], in assay [7], in assay [8], in assay [10] and in [11] was greater than 100 µM in each case. Moreover, the TGI in [19], in assay [12], in assay [13], in assay [14], in [15] and in assay [16] was greater than 100 µM in each case.

`C[C@@H]1CC[C@H]2[C@H](C)C(OC3O[C@@H]4O[C@@]5(C)CC[C@H]6[C@H](C)CC[C@@H]([C@@H]3C)[C@@]46O5)O[C@@H]3O[C@@]4(C)CC[C@@H]1[C@]32O4` (stereo partly specified): the TGI in assay [1], in assay [17], in [18], in assay [2], in [3] and in assay [4] was greater than 100 µM throughout. Moreover, the TGI in [5], in [7], in assay [8], in assay [9], in assay [10] and in [11] was greater than 100 µM throughout. The TGI in [19], in assay [12], in assay [13], in assay [14], in assay [15] and in assay [16] was greater than 100 µM each time.

Turning to `O=C1NC(N/N=C\c2ccccc2)=N/C1=C/c1ccccc1`, the TGI in assay [1], in assay [18], in [2], in [3], in assay [4] and in [5] was greater than 100 µM each time. Besides, the TGI in [6] was greater than 100 µM; in assay [7] it was 73.6 µM; in assay [8], greater than 100 µM; in [9], greater than 100 µM; in assay [10], greater than 100 µM; in assay [11], 63.2 µM. Further, the TGI was greater than 100 µM in [19]; 58.7 µM in assay [12]; 34.5 µM in assay [13]; greater than 100 µM in assay [14]; greater than 100 µM in assay [15]; 43.5 µM in [16].

As to `C1CCCN(NC2=NCCO2)CC1`, the TGI in assay [1], in [17], in [18], in assay [2], in [3] and in assay [4] was greater than 100 µM in each case. Moreover, the TGI in assay [5], in assay [6], in assay [7], in assay [9], in assay [10] and in assay [11] was greater than 100 µM each time. Also, the TGI in [12], in assay [13], in assay [14], in assay [15] and in assay [16] was greater than 100 µM throughout.

Regarding `CCCCCCCCCCCCCCCCNC(=O)/C(=C\c1ccc(Cl)c(Cl)c1)NC(=O)c1ccccc1`, the TGI in assay [1] is greater than 100 µM; in assay [18] it was greater than 100 µM; in [2], greater than 100 µM; in [3] it was greater than 100 µM; in assay [4] it was greater than 100 µM; in assay [5] it was 81.5 µM. The TGI in assay [6] is 41.4 µM; in assay [7] it was greater than 100 µM; in [8], greater than 100 µM; in [9], greater than 100 µM; in assay [10] it was 58.5 µM; in assay [11], 33.1 µM. In addition, the TGI in assay [19] is greater than 100 µM; in assay [12], 52.6 µM; in assay [13], greater than 100 µM; in assay [14] it was greater than 100 µM; in [15], 40.3 µM; in [16], 30.8 µM.

As to `COC(=O)c1ccc2c(c1)CC1(C2)Cc2ccccc2C1=O` (stereo unspecified), the TGI was 58.5 µM in assay [1]; greater than 100 µM in assay [18]; 59.8 µM in assay [2]; greater than 100 µM in assay [3]; 32.6 µM in [4]; greater than 100 µM in [5]. The TGI in assay [6] was greater than 100 µM; in assay [7] it was greater than 100 µM; in assay [8] it was greater than 100 µM; in [9], greater than 100 µM; in assay [10], 38 µM; in [11], 67.3 µM. Further, the TGI in [19] is greater than 100 µM; in assay [12], greater than 100 µM; in assay [13], greater than 100 µM; in [14] it was 42.4 µM; in assay [15], 84.8 µM; in [16], greater than 100 µM.

In the case of `CCOC(=O)C(=CNc1ccc(F)c(F)c1)C(=O)OCC`, the TGI in assay [1], in assay [18], in assay [2], in assay [3], in [4] and in assay [5] was greater than 100 µM each time. Further, the TGI in assay [6], in [7], in assay [8], in assay [9], in assay [10] and in assay [11] was greater than 100 µM throughout. Moreover, the TGI in assay [19], in assay [12], in [13], in assay [14], in assay [15] and in [16] was greater than 100 µM each time.

Take `CC(=O)/C(=C\I)c1ccccc1`: the TGI in [1] came to 12.8 µM; in [17] it was 3.96 µM; in [18], 5.37 µM; in [2], 3.28 µM; in assay [3], 3.45 µM; in assay [6], 4.25 µM. Besides, the TGI was found to be 24.5 µM in [7]; 36.5 µM in assay [8]; 3.35 µM in assay [9]; 5.26 µM in assay [10]; 20.3 µM in [11]; 26.5 µM in [19]. Further, the TGI in assay [12] stood at 4.99 µM; in [14], 3.14 µM; in assay [15] it was 3.74 µM; in assay [16] it was 34.2 µM.

Turning to `O=c1c(Sc2c(SCSc3cnc4ccccc4c3Sc3c[nH]c4ccccc4c3=O)cnc3ccccc23)c[nH]c2ccccc12`, the TGI in assay [1], in assay [17], in [18], in [2], in [3] and in assay [4] was greater than 100 µM throughout. Also, the TGI in assay [5], in [6], in assay [7], in assay [8], in assay [9] and in [10] was greater than 100 µM throughout. The TGI in assay [11], in assay [12], in assay [13], in [14], in assay [15] and in assay [16] was greater than 100 µM throughout.

`Cc1nn(C(=O)c2ccncc2)c2c1C(c1ccccc1[N+](=O)[O-])SC(N)=N2` (stereo unspecified): the TGI in assay [1], in assay [17], in assay [2], in assay [3], in [4] and in assay [5] was greater than 10 µM throughout. Besides, the TGI in assay [6], in [7], in assay [8], in assay [9], in [10] and in assay [11] was greater than 10 µM throughout. The TGI in [12], in assay [13], in assay [14], in [15] and in [16] was greater than 10 µM throughout.

With `CN=c1sc2nc(C#N)c(C#N)nc2n1C`, the TGI in assay [1] was 52.1 µM; in [17], 40.6 µM; in [18] it was 44.9 µM; in assay [2], greater than 58.3 µM; in assay [4], 35.4 µM; in [5], greater than 100 µM. Further, the TGI was 53.4 µM in assay [6]; greater than 62.6 µM in assay [7]; greater than 94.7 µM in [8]; 41.2 µM in assay [9]; greater than 84.9 µM in assay [10]; 51.4 µM in [11]. In addition, the TGI in [19] is 49.2 µM; in assay [12], 37.9 µM; in [13], 60.2 µM; in assay [14] it was 32.1 µM; in assay [15], greater than 80.7 µM; in assay [16], greater than 70.9 µM.

As for `O=[N+]([O-])c1cccc2nccc(NCCN3CCOCC3)c12`, the TGI in [1] is 81.8 µM; in assay [18] it was greater than 53.9 µM; in assay [2], 61.4 µM; in assay [3], greater than 54.2 µM; in assay [4], 22.3 µM; in assay [5], greater than 48 µM. Further, the TGI in assay [6] is 45.1 µM; in assay [7], greater than 100 µM; in [8] it was greater than 66.7 µM; in assay [9], greater than 46.9 µM; in assay [10], greater than 63.5 µM; in assay [11], 47.2 µM. Also, the TGI in assay [19] is greater than 100 µM; in assay [12], greater than 65.1 µM; in assay [13], greater than 59.4 µM; in [14], 49 µM; in [15], 71.1 µM; in assay [16] it was 57.2 µM.

Consider `C=CCN1CCC(c2cc(C(=O)OCC)[nH]c2-c2cc(C)no2)C1=O` (stereo unspecified), for which the TGI in [1], in assay [17], in assay [18], in assay [2], in [3] and in assay [4] was greater than 100 µM in each case. For the same compound, the TGI in assay [5], in [6], in assay [7], in [8], in assay [9] and in assay [10] was greater than 100 µM each time. In addition, the TGI in [11], in assay [19], in assay [12], in assay [14], in assay [15] and in assay [16] was greater than 100 µM in each case.

For the compound `Cc1sc2nc3n(c(=O)c2c1C)N=CN(c1ccc(Cl)cc1)C3`, the TGI in [1], in assay [17], in assay [18], in [2], in assay [3] and in assay [4] was greater than 100 µM throughout. The TGI in [5], in assay [6], in [7], in [8], in [9] and in [10] was greater than 100 µM each time. Further, the TGI in assay [11], in [19], in assay [12], in assay [13], in assay [14] and in [15] was greater than 100 µM throughout.

For `COc1ccccc1N/C(SCc1ccccc1)=C(/C(Cl)=C(Cl)Cl)[N+](=O)[O-]`, the TGI in assay [1] is 42.5 µM; in assay [17], greater than 100 µM; in assay [18], 47.3 µM; in [2] it was greater than 100 µM; in assay [3], 27.4 µM; in assay [5], 47.3 µM. Further, the TGI in assay [7] is greater than 100 µM; in assay [8], 39 µM; in assay [9], 49.8 µM; in [10], 88.2 µM; in assay [11], 84.2 µM; in assay [19] it was greater than 100 µM. The TGI in assay [12] is 31.7 µM; in assay [13] it was greater than 100 µM; in [14], 33.7 µM; in assay [15] it was 48.4 µM; in assay [16], 31.1 µM.
